One assay concerns Influenza A virus. The assay is described as follows: Antiinfluenza activity of compound against Influenza A/Sydney/5/97 in influenza cytopathic effect (CPE) assay. In kind it is functional, organism-based. For orientation: Cytopathic effects are the visible damage that an infection or toxin causes in cultured cells.
For another assay, the system named is Influenza B virus. The assay is described as follows: Antiinfluenza activity of compound against Influenza B/Harbin/7/95 in influenza cytopathic effect (CPE) assay. In kind it is functional, organism-based.
Assay [1] relates to Mus musculus. The assay is described as follows: Reduction in virus titre taken from mouse infected with Influenza A/Singapore/1/57 at 0.1 mg/kg dose in 7 day mouse influenza prevention assay. In kind it is functional.
The test system of assay [2] is Mus musculus. In words: Reduction in virus titre taken from mouse infected with Influenza A/Singapore/1/57 at 1.0 mg/kg dose in 7 day mouse influenza prevention assay. In kind it is functional.
The test system of assay [3] is Mus musculus. In words: Reduction in virus titre taken from mouse infected with Influenza A/Singapore/1/57 at 0.01 mg/kg dose in 7 day mouse influenza prevention assay. In kind it is functional.
Assay [4] relates to Mus musculus. The assay is described as follows: Reduction in virus titre taken from mouse infected with Influenza A/Singapore/1/57 at 0.4 mg/kg dose in 7 day mouse influenza prevention assay. In kind it is functional.
Assay [5] relates to Mus musculus. In words: Reduction in virus titre taken from mouse infected with Influenza A/Singapore/1/57 at 1.6 mg/kg dose in 7 day mouse influenza prevention assay. In kind it is functional.
The test system of assay [6] is Mus musculus. The assay is described as follows: Number of virus free mice from total 8 mice infected with Influenza A/Singapore/1/57 after 12.5 mg/kg of intranasal administration for 172 hr prior to viral infection. In kind it is functional.
Assay [7] has as its system Mus musculus. The assay is described as follows: Number of virus free mice from total 9 mice infected with Influenza A/Singapore/1/57 after 12.5 mg/kg of intranasal administration for 145 hr prior to viral infection. In kind it is functional.
Assay [8] has as its system Mus musculus. The assay is described as follows: Number of virus free mice from total 9 mice infected with Influenza A/Singapore/1/57 after 12.5 mg/kg of intranasal administration for 51 hr prior to viral infection. In kind it is functional.
In assay [9] the test system is Mus musculus. In words: Number of virus free mice from total 10 mice infected with Influenza A/Singapore/1/57 after 12.5 mg/kg of intranasal administration for 172 hr prior to viral infection. In kind it is functional.
The subject of assay [10] is Mus musculus. The assay is described as follows: Number of virus free mice from total 10 mice infected with Influenza A/Singapore/1/57 after 12.5 mg/kg of intranasal administration for 117 hr prior to viral infection. In kind it is functional.

Converted amounts (≈) assume the structure as drawn.

By EC50 is commonly meant the midpoint of the concentration-response curve. A lower EC50 goes with an effect from little substance. As for `CC(=O)N[C@H]1[C@H]([C@H](OC(=O)NCCCCCCNC(=O)CC(O)(CC(=O)NCCCCCCNC(=O)O[C@@H]([C@@H]2OC(C(=O)O)=C[C@H](N=C(N)N)[C@H]2NC(C)=O)[C@H](O)CO)C(=O)NCCCCCCNC(=O)O[C@@H]([C@@H]2OC(C(=O)O)=C[C@H](NC(=N)N)[C@H]2NC(C)=O)[C@H](O)CO)[C@H](O)CO)OC(C(=O)O)=C[C@@H]1N=C(N)N`, the EC50 turned out to be 0.159 ng/mL (≈ 0.102 nM) in the assay on Influenza A virus and 2.48 ng/mL (≈ 1.58 nM) with Influenza B virus. Also, the Effectiveness with Mus musculus [1] was found to be 85.88%; in the assay on Mus musculus [2] it was 99.11%.

Regarding `CC(=O)N[C@H]1[C@H]([C@H](OC(=O)NCCCCCCNC(=O)[C@H]2C[C@@H](C(=O)NCCCCCCNC(=O)O[C@@H]([C@@H]3OC(C(=O)O)=C[C@H](NC(=N)N)[C@H]3NC(C)=O)[C@H](O)CO)C[C@@H](C(=O)NCCCCCCNC(=O)O[C@@H]([C@@H]3OC(C(=O)O)=C[C@H](NC(=N)N)[C@H]3NC(C)=O)[C@H](O)CO)C2)[C@H](O)CO)OC(C(=O)O)=C[C@@H]1NC(=N)N`, the concentration giving a half-maximal response (EC50) is 0.3 ng/mL (≈ 0.189 nM) in the assay with Influenza A virus and 0.438 ng/mL (≈ 0.276 nM) with Influenza B virus. In addition, the Effectiveness turned out to be 94.38% in the assay on Mus musculus [1] and 98.32% in the assay with Mus musculus [2].

Turning to `CC(=O)N[C@H]1[C@H]([C@H](OC(=O)NCCCCCCNC(=O)c2cc(C(=O)NCCCCCCNC(=O)O[C@@H]([C@@H]3OC(C(=O)O)=C[C@H](N=C(N)N)[C@H]3NC(C)=O)[C@H](O)CO)cc(C(=O)NCCCCCCNC(=O)O[C@@H]([C@@H]3OC(C(=O)O)=C[C@H](NC(=N)N)[C@H]3NC(C)=O)[C@H](O)CO)c2)[C@H](O)CO)OC(C(=O)O)=C[C@@H]1N=C(N)N`, the EC50 stood at 0.82 ng/mL (≈ 0.519 nM) with Influenza A virus and 1.33 ng/mL (≈ 0.842 nM) with Influenza B virus. The Effectiveness in the assay with Mus musculus [3] amounted to 70.15%; in the assay with Mus musculus [1], 96.24%.

Turning to `CC(=O)N[C@H]1[C@H]([C@H](OC(=O)NCCCCCCNC(=O)CN(CCN(CC(=O)NCCCCCCNC(=O)O[C@@H]([C@@H]2OC(C(=O)O)=C[C@H](N=C(N)N)[C@H]2NC(C)=O)[C@H](O)CO)CC(=O)NCCCCCCNC(=O)O[C@@H]([C@@H]2OC(C(=O)O)=C[C@H](NC(=N)N)[C@H]2NC(C)=O)[C@H](O)CO)CC(=O)NCCCCCCNC(=O)O[C@@H]([C@@H]2OC(C(=O)O)=C[C@H](N=C(N)N)[C@H]2NC(C)=O)[C@H](O)CO)[C@H](O)CO)OC(C(=O)O)=C[C@@H]1N=C(N)N`, the concentration giving a half-maximal response (EC50) in the assay with Influenza A virus was found to be 1.07 ng/mL (≈ 0.505 nM); with Influenza B virus, 2.84 ng/mL (≈ 1.34 nM). Further, the results for the Effectiveness with Mus musculus [3] and in the assay with Mus musculus [1] were 68.38% and 95.53%, respectively.

In the case of `CC(=O)N[C@H]1[C@H]([C@H](OC(=O)NCCCCCCNC(=O)c2cc(C(=O)NCCCCCCNC(=O)O[C@@H]([C@@H]3OC(C(=O)O)=C[C@H](N=C(N)N)[C@H]3NC(C)=O)[C@H](O)CO)c(C(=O)NCCCCCCNC(=O)O[C@@H]([C@@H]3OC(C(=O)O)=C[C@H](NC(=N)N)[C@H]3NC(C)=O)[C@H](O)CO)cc2C(=O)NCCCCCCNC(=O)O[C@@H]([C@@H]2OC(C(=O)O)=C[C@H](N=C(N)N)[C@H]2NC(C)=O)[C@H](O)CO)[C@H](O)CO)OC(C(=O)O)=C[C@@H]1N=C(N)N`, the EC50 with Influenza A virus was 0.53 ng/mL (≈ 0.255 nM); with Influenza B virus it was 0.95 ng/mL (≈ 0.457 nM). The Effectiveness worked out at 74.88% in the assay with Mus musculus [1] and 99.68% in the assay on Mus musculus [2].

As to `CC(=O)N[C@H]1[C@H]([C@H](OC(=O)NCCCCCCN)[C@H](O)CO)OC(C(=O)O)=C[C@@H]1NC(=N)N`, the EC50 was 438 ng/mL (≈ 923 nM) in the assay with Influenza A virus and 213 ng/mL (≈ 449 nM) in the assay with Influenza B virus.

`CC(=O)N[C@H]1[C@H]([C@H](OC(=O)NCCCCCCNC(=O)CC(CC(=O)NCCCCCCNC(=O)O[C@@H]([C@@H]2OC(C(=O)O)=C[C@H](N=C(N)N)[C@H]2NC(C)=O)[C@H](O)CO)C(=O)NCCCCCCNC(=O)O[C@@H]([C@@H]2OC(C(=O)O)=C[C@H](NC(=N)N)[C@H]2NC(C)=O)[C@H](O)CO)[C@H](O)CO)OC(C(=O)O)=C[C@@H]1N=C(N)N`: the values for the EC50 in the assay with Influenza A virus and in the assay on Influenza B virus were 0.4 ng/mL (≈ 0.259 nM) and 0.81 ng/mL (≈ 0.524 nM), respectively. Further, the Effectiveness worked out at 68.78% in the assay on Mus musculus [1] and 98.24% in the assay on Mus musculus [2].

Consider `CC(=O)N[C@H]1[C@H]([C@H](O)[C@H](O)CO)OC(C(=O)O)=C[C@@H]1NC(=N)N` [ZANAMIVIR], for which the EC50 worked out at 32.5 ng/mL (≈ 97.8 nM) in the assay with Influenza A virus and 12.2 ng/mL (≈ 36.7 nM) with Influenza B virus. Also, the Effectiveness with Mus musculus [4] came to 0%; in the assay with Mus musculus [2], 81.76%; with Mus musculus [5] it was 97.03%. Also, the “No. of virus free mice” value came to 0 in the assay on Mus musculus [6]; 3 in the assay with Mus musculus [7]; 3 in the assay on Mus musculus [8]; 0 in the assay on Mus musculus [9]; 1 in the assay with Mus musculus [10].

These data come from ChEMBL document CHEMBL1147641, “Highly potent and long-acting trimeric and tetrameric inhibitors of influenza virus neuraminidase” (Bioorg Med Chem Lett, 2004).
